{
  "source": "paper PMC8387799",
  "about": "“Inhibition Effect of Extract of Psychotria viridiflora Stem on α-Amylase and α-Glucosidase and Its Application in Lowering the Digestibility of Noodles” (Frontiers in Nutrition, 2021)",
  "system": "T1, rat intestinal α-glucosidase",
  "T1 construct": "gene Mgam; native; supernatant of PBS extract of commercial rat intestinal powder (crude mixture of brush-border glucosidases)",
  "experiment": "turbidity ([…] nm) of corn starch hydrolysis, AUC, microplate",
  "type": "biochemical",
  "settings": "corn starch substrate; PBS, 37 °C preincubation 15 min",
  "data": [
    {"compound": "C[C@H]1O[C@H](O[C@H]2[C@H](O)[C@@H](O)[C@@H](O[C@H]3[C@H](O)[C@@H](O)C(O)O[C@@H]3CO)O[C@@H]2CO)[C@H](O)[C@@H](O)[C@@H]1N[C@H]1C=C(CO)[C@@H](O)[C@H](O)[C@H]1O", "note": "(stereo partly shown) [acarbose]", "values": [
      {"measurement": "IC50", "result": "2.27 ± 1.35", "unit": "µg/mL"}
    ]}
  ]
}
